Paper PMC6584016, “A new lipoxygenase from the agaric fungus Agrocybe aegerita: Biochemical characterization and kinetic properties” (PLoS ONE, 2019)

Target: T1, AaeLOX4 (Cyclocybe aegerita, UniProt A0A4D6T4S4)
T1 construct: gene lox4; codon-optimized gene in pET28a, E. coli BL21(DE3) Gold; HisTrap and gel filtration, tag cleavage not mentioned; predicted 79 kDa
T1 sequence (A0A4D6T4S4 1-710): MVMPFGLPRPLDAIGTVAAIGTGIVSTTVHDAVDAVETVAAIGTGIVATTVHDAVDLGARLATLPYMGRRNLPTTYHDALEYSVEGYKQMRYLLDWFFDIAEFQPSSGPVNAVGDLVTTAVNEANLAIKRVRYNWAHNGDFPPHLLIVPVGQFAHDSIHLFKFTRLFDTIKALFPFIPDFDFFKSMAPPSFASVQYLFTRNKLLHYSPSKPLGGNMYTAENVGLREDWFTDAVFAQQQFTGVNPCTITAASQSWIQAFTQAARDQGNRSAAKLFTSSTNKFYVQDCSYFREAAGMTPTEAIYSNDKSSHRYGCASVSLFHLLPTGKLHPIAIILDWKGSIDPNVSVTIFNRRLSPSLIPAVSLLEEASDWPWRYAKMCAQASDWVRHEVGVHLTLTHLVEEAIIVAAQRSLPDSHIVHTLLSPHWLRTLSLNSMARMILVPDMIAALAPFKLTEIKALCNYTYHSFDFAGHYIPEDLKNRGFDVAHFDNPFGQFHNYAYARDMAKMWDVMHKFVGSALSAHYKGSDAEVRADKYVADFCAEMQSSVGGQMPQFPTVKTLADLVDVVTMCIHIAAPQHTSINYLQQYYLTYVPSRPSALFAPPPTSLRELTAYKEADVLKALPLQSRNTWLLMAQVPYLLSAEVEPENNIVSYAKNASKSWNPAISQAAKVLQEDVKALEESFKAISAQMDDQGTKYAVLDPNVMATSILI
Test: conjugated diene formation at […] nm; Lineweaver-Burk
Format: biochemical
Conditions: 50 mM phosphate pH 7.5, 25 °C; substrate dispersed with Tween 20; 0.025-2 mM

Compound | Km
CCCCC/C=C\C/C=C\CCCCCCCC(=O)O [linoleic acid] | 295 µM
CC/C=C\C/C=C\C/C=C\CCCCCCCC(=O)O [linolenic acid] | 634 µM
